How the values were obtained:
TNFα = assay: Bioassay of TNFα production by LPS activated RAW 264.7 macrophages using L929 cell line; assay type: cell-based; conditions: Mus musculus; L929 + ActD + supernatant from LPS + compound (10 μM) treated RAW 264.7 macrophage; crystal violet; mean ± S.D. of triplicate; read-out: PERCENTAGE CELL SURVIVAL ± S.D.
Procedure: Measurement of TNFα in culture medium or supernatant is performed using immunoassay and bioassay. Bioassay was used for the measurement of bioactive TNFα production in the culture medium.
TNFα secretion into the medium by LPS activated macrophage was assayed using L929 tumorigenic murine cells (ATCC) specifically sensitive to TNFα. L929 cell cytotoxicity assay was performed by a modified method (Sano et al., The Journal of Immunology, 1999, 163: 387-395 The Journal of Immunology, 1999, 163: 387-395) based on that described elsewhere (Flick D A, Gifford G E. J Immunol Methods. 1984 Mar. 30; 68(1-2): 167-175). Briefly, the L929 cells (log phase cells) were seeded into a flat bottom 96 well plates (6×10^4/well) in 100 μl volume of RPMI 1640 containing 2% FCS and incubated overnight at 37° C. in a 5% CO2 incubator. A working dilution of the culture supernatant collected from LPS (200 ng/ml) activated macrophage in a volume of 100 μl per well was first tested to obtain 70-75% cytotoxicity equivalent to […] of recombinant TNFα standard to the TNFα sensitive L929 cell line. After incubation of the L929 cells appropriate fixed dilution of the culture supernatant collected from the compound treated (10 μM) wells, containing the LPS stimulated macrophages in a volume of 100 μl with 2 μg/ml Actinomycin D (Act D) was taken and added to the L929 cells and the cells were incubated at room temperature for 15 min followed by 18 h incubation at 37° C. overnight with 5% CO2. On the next day the medium was removed and the cells were stained with 0.2% (w/v) crystal violet for 10 minutes. The wells were gently rinsed with water, and 33% acetic acid (100 μl/well) was added to extract the retained crystal violet. The absorbance at 570 nm was finally measured.
Tumor necrosis factor-α can cause direct cytotoxicity to the lung fibroblast cell line (L929). Bioassay of TNF α is designated on the basis of this cytotoxicity of TNF α, which can be used for the identification of murine TNF α activity in tissue culture supernatants. Culture supernatant collected from the synthetic molecules treated well containing LPS stimulated macrophage modulated the extent of cytotoxicity to the L929 cells (see Table 1).

RAW 264.7 cells = assay: Nitrite quantification (Griess) in LPS stimulated macrophages; assay type: cell-based, mouse; conditions: RAW 264.7 + LPS (200 ng/ml) + 10 μM compound, 24 h; LPS + DMSO control 14.560, basal 0.782
Procedure: NO2^− accumulation was used as an indicator of Nitric Oxide (NO) production in the medium as described previously (Green et al., 1982 Anal Biochem 126, 131-138). […] The isolated supernatants were mixed with an equal volume of Griess reagent (1% sulfanilamide, 0.1% naphthylenediamine dihydrochloride, and 2% phosphoric acid) and incubated at room temperature for 15 min. NaNO2 was used to generate a standard curve, and nitrite production was determined by measuring the optical density at 540 nm.
To estimate the anti-inflammatory effects of all the synthetic molecules listed in this study, we measured the accumulation of nitrite, the stable metabolite of NO, in the culture media using Griess reagent.
To investigate the effect of CAMVE on NO production, we measured the accumulation of nitrite, the stable metabolite of NO, in the culture media using Griess reagent. To investigate the effect of CAMVE on NO production, Raw 264.7 cells, pretreated with indicated concentrations of CAMVE for 1 h were incubated with LPS (250 ng/ml) for 24 h.

Row | Compound | viability at 10 µM (TNFα) | CONCENTRATION OF NITRITE μM ± SD (RAW 264.7 cells)
1 | COC(=O)/C=C/c1ccc(OC(=O)c2ccc(O)c(OC)c2)c(OC)c1 [compound 11, 2-methoxy-4-[(1E)-3-methoxy-3-oxoprop-1-en-1yl]phenyl 4-hydroxy-3-methoxybenzoate] | 52.4 ± 1.51% | 5.604 ± 0.668 µM
2 | C=CCc1ccc(OC(=O)/C=C/c2ccc(O)c(O)c2)c(OC)c1 [compound 4, 4-allyl-2-methoxyphenyl (2E)-3-(3,4-dihydroxyphenyl)acrylate] | 69.1 ± 1.49% | 3.093 ± 0.437 µM
3 | COC(=O)/C=C/c1cc(OC)c2c(c1)[C@@H](C(=O)OC)[C@H](c1ccc(OC(=O)/C=C/c3ccc(O)c(O)c3)c(OC)c1)O2 [compound 6, Methyl (E)-3-[2β-{4-O-(3,4-dihydroxycinnamoyl)-3-methoxyphenyl}-7-methoxy-3α-methoxycarbonyl-2,3-dihydro-1-benzofuran-5-yl]prop-2-enoate] | 66.6 ± 1.49% | 3.204 ± 0.168 µM
4 | COC(=O)c1ccccc1OC(=O)c1ccc(O)c(OC)c1 [compound 9, 2-(Methoxycarbonyl)phenyl 4-hydroxy-3-methoxybenzoate] | 51.1 ± 2.77% | 7.582 ± 0.868 µM
5 | COC(=O)c1ccccc1OC(=O)/C=C/c1ccc(O)c(O)c1 [compound 3, Methyl 2-{[(2E)-3-(3,4-dihydroxyphenyl)prop-2-enoyl]oxy}benzoate] | 67 ± 2.3% | 3.022 ± 0.300 µM
6 | C/C=C/c1cc(OC)c2c(c1)[C@@H](C)[C@H](c1ccc(OC(=O)/C=C/c3ccc(O)c(O)c3)c(OC)c1)O2 (racemic) [compound 5, (±)-2β-[4-O-(3,4,-dihydroxycinnamoyl)-3-methoxyphenyl]-3α-methyl-7-methoxy-5-[(E)-1-propenyl]-2,3 dihydrobenzofuran] | 67.8 ± 0.866% | 3.449 ± 0.315 µM
7 | COC(=O)c1ccc(OC(=O)c2cc(O)c(O)c(O)c2)c(OC)c1 [compound 26, 2-methoxy-4-(methoxycarbonyl)phenyl 3,4,5-trihydroxybenzoate] | 58.8 ± 2.15% | 6.138 ± 0.567 µM
8 | COC(=O)c1ccccc1OC(=O)/C=C/c1ccc(O)cc1 [compound 20, methyl 2-{[(2E)-3-(4-hydroxyphenyl)prop-2-enoyl]oxy}benzoate] | 51.9% | 8.493 ± 0.267 µM
9 | COc1cc([C@@H]2Oc3c(O)cc(/C=C/C(=O)O)cc3[C@H]2C(=O)O)ccc1O [compound 28, 5-[(E)-2-carboxyvinyl]-7-hydroxy-2β-(4-hydroxy-3-methoxyphenyl)-2,3-dihydro-1-benzofuran-3α-carboxylic acid] | 66.4 ± 1.11% | 7.604 ± 0.204 µM
10 | C/C=C/c1ccc(OC(=O)c2ccc(O)c(OC)c2)c(OC)c1 [compound 14, 2-Methoxy-4-[(1E)-prop-1en-1-yl]phenyl4-hydroxy-3-methoxy benzoate] | 51 ± 1.91% | 8.382 ± 0.278 µM
11 | COc1cc(C(=O)Oc2ccc(C=O)cc2OC)ccc1O [compound 15, 4-formyl-2-methoxyphenyl 4-hydroxy-3-methoxybenozoate] | 50.9 ± 1.84% | 8.271 ± 0.342 µM
12 | COc1cc(C=O)ccc1OC(=O)/C=C/c1ccc(O)c(O)c1 [compound 8, 4-formyl-2-methoxyphenyl (2E)-3-(3,4-dihydroxyphenyl)acrylate] | 67.8 ± 1.25% | 3.893 ± 0.133 µM
13 | C=CCc1ccc(OC(=O)c2ccc(O)c(OC)c2)c(OC)c1 [compound 13, 4-allyl-2-methoxyphenyl 4-hydroxy-3-methoxybenzoate] | 50.6 ± 1.6% | 8.004 ± 0.379 µM
14 | C/C=C/c1cc(OC)c2c(c1)[C@@H](C)[C@H](c1ccc(OC(=O)c3ccc(O)c(OC)c3)c(OC)c1)O2 (racemic) [compound 16, (±)-2β-[4-O-(3-methoxy-4-hydroxybenzoyl)-3-methoxyphenyl]-3α-methyl-7-methoxy-5-[(E)-1-propenyl]-2,3-dihydrobenzofuran] | 49 ± 1.99% | 8.449 ± 0.234 µM
15 | COC(=O)/C=C/c1ccc(OC(=O)/C=C/c2ccc(O)c(O)c2)c(OC)c1 [compound 2, 2-methoxy-4-[(1E)-3-methoxy-3-oxoprop-1-en-1-yl]phenyl (2E)-3-(3,4 dihydroxyphenyl)acrylate] | 68% | 2.404 ± 0.168 µM
16 | C/C=C/c1ccc(OC(=O)/C=C/c2ccc(O)c(O)c2)c(OC)c1 [compound 7, 2-methoxy-4-[(1E)-prop-1-en-1-yl]phenyl(2E)-3-(3,4-dihydroxyphenyl)acrylate] | 65.3 ± 1.11% | 3.760 ± 0.546 µM
17 | COC(=O)/C=C/c1cc(OC)c2c(c1)[C@@H](C(=O)OC)[C@H](c1ccc(OC(=O)c3ccc(O)c(OC)c3)c(OC)c1)O2 [compound 12, Methyl(E)-3-[2β-{4-O-(3-methoxy-4-hydroxyphenylcarbonyl)-3-methoxyphenyl}-7-methoxy-3α-methoxycarbonyl-2,3-dihydro-1-benzofuran-5-yl]prop-2-enoate] | 51.3 ± 1.21% | 9.582 ± 0.482 µM
18 | COC(=O)c1ccc(OC(=O)/C=C/c2ccc(O)cc2)c(OC)c1 [compound 17, methyl 4-{[(2E)-3-(4-hydroxyphenyl)prop-2-enoyl]oxy}-3-methoxy benzoate] | 51.9 ± 1.43% | 8.404 ± 0.315 µM
19 | C/C=C/c1cc(OC)c2c(c1)[C@@H](C)[C@H](c1ccc(OC(=O)/C=C/c3ccc(O)cc3)c(OC)c1)O2 (racemic) [compound 29, (±)-2β-[4-O-(4-hydroxycinnamoyl)-3-methoxyphenyl]-3α-methyl-7-methoxy-5-[(E)-1-propenyl]-2,3-dihydrobenzofuran] | 50.6 ± 1.49% | 8.382 ± 0.454 µM
20 | COC(=O)/C=C/c1ccc(OC(=O)/C=C/c2ccc(O)cc2)c(OC(=O)/C=C/c2ccc(O)cc2)c1 [compound 22, methyl [3,4-bis O-(4-hydroxyphenylacryloyl)]phenylacrylate] | 65.6 ± 1.33% | 3.982 ± 0.301 µM
21 | COC(=O)/C=C/c1cc(OC)c2c(c1)[C@@H](C(=O)OC)[C@H](c1ccc(OC(=O)/C=C/c3ccc(O)cc3)c(OC)c1)O2 [compound 24] | 50.3 ± 1.28% | 8.582 ± 0.214 µM
22 | COc1cc(C=O)ccc1OC(=O)/C=C/c1ccc(O)cc1 [compound 19, 4-formyl-2-methoxyphenyl (2E)-3-(4-hydroxyphenyl)acrylate] | 51.6 ± 1.57% | 8.227 ± 0.115 µM
23 | C=CCc1ccc(OC(=O)/C=C/c2ccc(O)cc2)c(OC)c1 [compound 21, 4-allyl-2-methoxyphenyl (2E)-3-(4-hydroxyophenyl)acrylate] | 52.3 ± 1.25% | 8.293 ± 0.371 µM
24 | C/C=C/c1ccc(OC(=O)/C=C/c2ccc(O)cc2)c(OC)c1 [compound 23, 2-methoxy-4-[(1E)-prop-1-en-1-yl]phenyl (2E)-3-(4-hydroxyphenyl)acrylate] | 51.2 ± 1.55% | 8.338 ± 0.204 µM
25 | C/C=C/c1cc(OC)c2c(c1)[C@@H](C)[C@H](c1ccc(OC(=O)/C=C/c3ccc(O)c(OC)c3)c(OC)c1)O2 (racemic) [compound 25, (±)-2β-[4-O-(3-methoxy-4-hydroxycinnamoyl)-3-methoxyphenyl]-3α-methyl-7-methoxy-5-[(E)-1-propenyl]-2,3-dihydrobenzofuran] | 53.7 ± 2.05% | 7.871 ± 0.168 µM

Source: patent US20100168228A1, “NOVEL CHEMOTHERAPEUTIC AGENTS AGAINST INFLAMMATION AND CANCER” (RELIANCE LIFE SCIENCES PVT. LTD., priority 2006, published 2010)
